Test results: US20060258578A1, “Pharmaceutical composition” (The University of Zurich, priority 2005, published 2006)
Entries after “also recorded” stand apart in the source; their conditions may differ.

Columns and labels:
MC3T3-E1 cells [1] = experiment: maturation of preosteoblastic cells determined by alkaline phosphatase activity; assay type: cell-based; conditions: for effect on maturation of MC3T3-E1 cells (alkaline phosphatase activity), solvent comparison: increasing amounts of solvent, triacetin 0,1 to 6 mM (FIG. 3)
Experimental: (§1) MC3T3-E1 cells were grown in an alpha-modified Minimum Essential Medium (Life Technologies, Inc., Grand Island, N.Y.) containing 10% fetal calf serum (Life Technologies, Inc.), 50 μg/ml gentamycin, and 50 μg/ml ascorbic acid. C3H10T1/2 cells were grown in basal medium Eagle, and 50 μg/ml gentamycin. To examine the action of triacetin on both cell lines, 1×10^5 cells per well were plated in 6-well plates and triacetin subsequently added. Medium exchange was performed after 3 days and alkaline phosphatase (ALP) was determined according to Lowry, O. et al. [J. Biol. Chem. 207 (1954) 19-37]: p-nitrophenol liberated was converted to p-nitrophenylate by adding 400 μl of 1 M NaOH, which was quantitated by measuring the absorbance at 410 nm (epsilon=17500/mol×cm). Alkaline phosphatase activity was normalized to total protein and expressed as nmol nitrophenylate generated per min per mg protein.
(§2) First, to verify the osteoinductive activity of triacetin an embryonic, murine, mesenchymal stem cell line C3H10T1/2 and a preosteoblastic cell line MC3T3-E1 were used and cultured as described above. C3H10T1/2 cells can differentiate into cartilage, bone or adipose cells, whereas MC3T3-E1 produces and releases autologous BMP. Alkaline phosphatase activity was used as a marker for the differentiation into the osteoblastic lineage.
Additionally, the effect of various plasticizers/solvents regarding their osteogenetic effect was compared to that of triacetin. MC3T3-E1 cells were grown as described above and treated with increasing amounts of different solvents and the effect on the maturation of MC3T3-E1 cells determined after 6 days by alkaline phosphatase activity.
To determine the effect of external BMP, C3H10T1/2 cells and MC3T3-E1 cells were plated at day one in 4 ml medium and ALP determination performed on day 6. On day 1 rhBMP was added to the cells from a stock solution of 2 mg/ml rhBMP-2 in 1 mM HCl to a concentration of 1 μg/ml. triacetin to a final concentration of 2 and 4 mM was added to the cells at the same time point from a stock solution of 200 mM triacetin in respective medium. After application triacetin and rhBMP was mixed by gently swirling the entire 6 well plate. In a separate experiment, the cells were treated with triacetin only.
In a similar manner, the effect of external rhBMP-4 on the maturation of MC3T3-E1 cells was determined by alkaline phosphatase activity. MC3T3-E1 cells were treated with triacetin in the presence or absence of 60 ng rhBMP-4/ml of the medium.
MC3T3-E1 cells were treated with triacetin in the presence or absence of 60 ng rhBMP-7/ml of the medium.

MC3T3-E1 cells [2] = experiment: mineralization visualized by Alizarin red-S staining; assay type: cell-based; conditions: MC3T3-E1, 4 weeks, 5 mM glycerol phosphate, 2.0 and 4.0 mM triacetin
Experimental: FIG. 2A: MC3T3-E1 cells treated with increasing amounts of triacetin and the maturation determined after 6 days by alkaline phosphatase activity. FIG. 2B: Mineralization by MC3T3-E1 cells seeded on a 6-well plate visualized by Alizarin S-staining. The MC3T3-E1 cells were cultured for 4 weeks in the presence of 5 mM glycerol phosphate. From the left: no triacetin was added, 2.0 mM triacetin was added, 4.0 mM triacetin.
Mineralization was determined in MC3T3-E1 cells grown in the same medium supplemented with 5 mM glycerol phosphate and 1 μg/ml rhBMP-2 or 60 ng/ml of rhBMP-4 of rhBMP-7. Alizarin red-S staining was performed after 4 weeks according to Bodine, P. V. N., et al. [J. Bone Mineral Res. 11 (1996) 806-819].

C3H10T1/2 cells = experiment: differentiation of mesenchymal stem cells towards osteoblastic lineage determined by alkaline phosphatase activity; assay type: cell-based, murine
Experimental: as §1
as §2, with “Alkaline phosphatase activity was used as a marker for the differentiation into the osteoblastic lineage.” left out
The differentiation of the mesenchymal cell like cell line (C3H10T1/2) towards an osteoblastic lineage was determined by alkaline phosphatase activity. […]

CN(C)C=O [N,N-dimethylformamide, reference compound]
effect on maturation of MC3T3-E1 cells (alkaline phosphatase activity), solvent comparison (MC3T3-E1 cells [1]; after 6 days): no positive effect

C[S+](C)[O-] [dimethylsulfoxide, reference compound]
effect on maturation of MC3T3-E1 cells (alkaline phosphatase activity), solvent comparison (MC3T3-E1 cells [1]; after 6 days): no positive effect

CCO [ethanol, reference compound]
effect on maturation of MC3T3-E1 cells (alkaline phosphatase activity), solvent comparison (MC3T3-E1 cells [1]; after 6 days): no positive effect

CO [methanol, reference compound]
effect on maturation of MC3T3-E1 cells (alkaline phosphatase activity), solvent comparison (MC3T3-E1 cells [1]; after 6 days): no positive effect

CC(=O)OCC(COC(C)=O)OC(C)=O [triacetin, glyceryl triacetate]
increase of alkaline phosphatase activity (MC3T3-E1 cells [1]; MC3T3-E1, 0,0 to 4 mM triacetin, after 6 days): 2.0-7.0 factor
synergistic effect with rhBMP4 on maturation (alkaline phosphatase activity) (MC3T3-E1 cells [1]; MC3T3-E1, triacetin with 60 ng rhBMP4/ml (FIG. 5)): synergistic effect
synergistic effect with rhBMP-7 on maturation (alkaline phosphatase activity) (MC3T3-E1 cells [1]; MC3T3-E1, triacetin with 60 ng rhBMP-7/ml (FIG. 6)): synergistic bone forming effect
synergistic effect with rhBMP-2 on maturation (alkaline phosphatase activity) (MC3T3-E1 cells [1]; MC3T3-E1, triacetin with 1 μg rhBMP-2/ml (FIG. 4)): synergistic effect
effect on maturation of MC3T3-E1 cells (alkaline phosphatase activity), solvent comparison (MC3T3-E1 cells [1]; after 6 days): increases in a concentration dependent manner
mineralisation by alizarin-S-staining (MC3T3-E1 cells [2]): increased mineralisation
alkaline phosphatase activity, triacetin alone (C3H10T1/2 cells; C3H10T1/2, 2 mM and 4 mM, absence of rhBMP): increase in alkaline phosphatase activity; also recorded: able to induce alkaline phosphatase activity
synergistic effect with rhBMP-2 on alkaline phosphatase activity (C3H10T1/2 cells; C3H10T1/2, triacetin 2 and 4 mM with 1 μg rhBMP-2/ml, day 6): further enhanced; also recorded: works synergistically
